In data set [1] the test system is NCl—H460 non-microcytoma lung cancer cells. The data set can be described thus: Cytotoxic activity on NCl—H460 cells (sulforodamine B). The settings on record: for IC50: read-out: IC50 (product concentration that inhibits cell survival by 50%), 2 hours exposure, 72 hours recovery, mean ± SD.
Description: NCl—H460 non-microcytoma lung cancer cells were kept in RPMI 1640 culture medium containing 10% FCS and 1% glutamine. The cytotoxicity test to analyse the activity of the molecules was performed as follows. The cells were seeded in a volume of 250 μl in 96-well plates and incubated for 2 hours at 37° C. with scalar concentrations of the products in a humidified atmosphere containing 5% CO2. At the end of the incubation, the molecules were removed by overturning the plates and adding sterile buffered saline solution (PBS) three times. The RPMI 1640 culture medium containing 10% FCS (200 μl) was added to the wells and the plates were incubated for another 72 hours. At the end of the incubation, the plates were overturned again and dried on paper, before adding 200 μl of PBS and 50 μl of 80% TCA. The plates were incubated again in ice for at least 1 hour. The TCA was removed by overturning the plates and the plates were first dried on paper and then washed three times by immersion in distilled water and overturning. The plates were dried first on paper and then in a thermostatically regulated incubator at 60° C. for 10 min. 200 μl of 0.4% sulforodamine B in 1% acetic acid were added to all wells. The plates were incubated at room temperature for another 30 min. The sulforodamine B was removed by overturning, the plates were washed by immersion in 1% acetic acid three times and then dried first on blotting paper and then in the thermostat at 60° C. for 10 min. Lastly, 200 μl of Tris base 10 mM were added to all wells and the plates were subjected to stirring for at least 20 min. The optical density was measured with a Multiskan spectrophotometer at 540 nm.
For data set [2], the system named is Saccharomyces cerevisiae yeast strain EKY3 (top1Δ), Topoisomerase I wild-type (TOP1). The data set can be described thus: Yeast in-vivo spot test, wild-type TOP1. It counts as cell-based. The settings on record: 45 μM.
Description: One day before the transformation, a single yeast colony sample was taken with a sterile Gilson tip and inoculated in 5 ml of sterile liquid YPDA medium (the above-mentioned medium without agar). The colony was grown overnight under stirring at 30° C. […]
Data set [3] relates to Saccharomyces cerevisiae yeast strain EKY3 (top1Δ), YCpGAL1-hTOP1G363C. The data set can be described thus: Yeast in-vivo spot test, G363C mutant. It counts as cell-based. The settings on record: 45 μM. The source says:
(§1) To identify camptothecin derivatives that overcome the resistance to camptothecin induced by point mutations on topisomerase I DNA in the Saccharomyces cerevisiae yeast model, an in-vivo and an in-vitro system were used in parallel.
(§2) A number of mutations are present close to the active site of the enzyme (tyrosine 723) and others around position 363 which corresponds to a very well conserved region.
(§3) Before effecting the transformation of the yeasts, the yeasts were unfrozen and plated with a sterile bent glass rod in 90-mm plates containing sterile solid YPDa medium (10 g of yeast extract, 20 g of peptone, 20 g of dextrose, 0.7 g of adenine, 20 g of glucose, 20 g of agar per liter). Colonies formed after 48-72 hours in an incubator at 30° C.
(§4) One day before the transformation, a single yeast colony sample was taken with a sterile Gilson tip and inoculated in 5 ml of sterile liquid YPDA medium (the above-mentioned medium without agar). […]
(§5) Before treating the yeasts with the camptothecin derivatives (in-vivo spot test), the transformed colonies were inoculated with a Gilson tip in 5 ml sterile liquid CM medium. […] On the day after, the optical density of the colonies was measured at 600 nm and a dilution of the colonies was performed in order to obtain an optical density of 0.3. […] The colonies were incubated at 30° C. for 48-72 hours and analysed macroscopically.

In data set [4] the test system is Saccharomyces cerevisiae yeast strain EKY3 (top1Δ), YCpGAL-1hTOP1A653P. In words: Yeast in-vivo spot test, A653P mutant. The conditions noted are these: 45 μM. It counts as cell-based.
Description: as §1, §2, §3, §4, §5

Data set [5] relates to Saccharomyces cerevisiae yeast strain EKY3 (top1Δ), YCpGAL1-hTOP1K720E. In words: Yeast in-vivo spot test, K720E mutant. Type of data set: cell-based. The conditions noted are these: 45 μM.
Description: as §1, §2, §3, §4, §5

Data set [6] concerns MKN-28 human gastric carcinoma. The settings on record: for LCK (1000 mm^3) (log cell kill): q4dx4; for TVI % (tumor volume inhibition): q4dx4, 20 days after last treatment. As for the experimental part:
Tumor fragments were inoculated on both flanks at day 0. Treatment started when tumors were just palpable. The molecule was given by oral route and intravenously according to the schedule q4d×4. During the treatment, animals were inspected every day for mortality. Physical appearance, behavior and general and local clinical signs of the mice will be observed daily. Any deviation from normality was recorded. All animals were weighed during the whole treatment period, in order to calculate the percent body weight loss due to the treatment.
Tumor volume inhibition % in treated over control tumors was evaluated 20 days after last treatment. To determine the antitumor activity of the drug, tumor diameters was measured biweekly with a Vernier caliper. The formula TV (mm^3)=[length (mm)×width (mm)^2]/2 was used, where the width and the length are the shortest and the longest diameters of each tumor, respectively.
When tumors reached a weight of about 2 g, the mice were sacrificed by cervical dislocation. LCK (log cell kill) as index of efficacy was calculated to evaluate the persistence of the effect of the molecule at the end of the treatment.

Where two headings read alike, the source gives them in different places.

Consider `CCC1(O)C(=O)OCc2c1cc1n(c2=O)Cc2c-1nc1ccccc1c2C=NOCCCNC(=O)OC(C)(C)C` (stereo not drawn) [ST2664, 7-[3-(N-tert-butoxycarbonyl)-amino-1-propoxyiminomethyl]20S-camptothecin], for which, in data set [1], the IC50 was more than 200 nM.

As for `CCC1(O)C(=O)OCc2c1cc1n(c2=O)Cc2c-1nc1ccccc1c2C=NOCCCN(CCCCNC(=O)OC(C)(C)C)C(=O)OC(C)(C)C` (centres unmarked) [ST2872], the IC50 in data set [1] is more than 200 nM.

As for “7-[N-(N′-tert-butoxcarbonyl)-putrescinimino-methyl]-20S-camptothecin [ST2615]”, the IC50 in data set [1] is more than 200 nM.

As for “7-[(N′, N″-tert-butoxycarbonyl)-spermidine-imino-methyl]-20S-camptothecin [ST2598]”, the “Phenotype of Topoisomerase I wild-type towards the derivative” value in data set [2] was “sensitivity”. The “Phenotype of mutated enzyme G363C towards the derivative” value in data set [3] was “resistant”. Moreover, the “Phenotype of mutated enzyme A653P towards the derivative” value in data set [4] is “resistant”. For the same compound, in data set [1], the “Cytotoxicity on the lung cancer line (in words)” value is “very potent cytotoxicity” and the IC50 was found to be 15 ± 2 nM.

With `CC[C@@]1(O)C(=O)OCc2c1cc1n(c2=O)Cc2c-1nc1ccccc1c2C=NCC1CCN(C(=O)OC(C)(C)C)CC1` [ST2665], in data set [1], the IC50 is more than 200 nM.

Consider “7-[(N′,N″,N′″-tert-butoxycarbonyl)-spermine-imino-methyl]-20S-camptothecin [ST2544]”, for which the “Phenotype of Topoisomerase I wild-type towards the derivative” value in data set [2] is “sensitivity”. Besides, in data set [3], the “Phenotype of mutated enzyme G363C towards the derivative” value is “resistant”. Moreover, the “Phenotype of K720E mutant towards the derivative” value in data set [5] is “sensitivity”. Besides, the “Phenotype of mutated enzyme A653P towards the derivative” value in data set [4] is reported as “resistant”. For the same compound, the “LCK (1000 mm^3) (log cell kill)” value was 0.2 in data set [6] (iv, 1 mg/kg); 0.2 in data set [6] (iv, 2 mg/kg); 0.8 in data set [6] (iv, 4 mg/kg); 0.1 in data set [6] (p.o., 1 mg/kg); 0.5 in data set [6] (p.o., 2 mg/kg). The “TVI % (tumor volume inhibition)” value in data set [6] (iv, 1 mg/kg) turned out to be 34%; in data set [6] (iv, 2 mg/kg), 36%; in data set [6] (iv, 4 mg/kg), 66%; in data set [6] (p.o., 1 mg/kg), 28%; in data set [6] (p.o., 2 mg/kg, 2 mg/kg), 62%; in data set [6] (p.o., 4 mg/kg, 4 mg/kg) it was 72%. In addition, the IC50 in data set [1] was determined as 12.9 ± 1.8 nM.

With “7-[(N′,N″-Di-benzyloxycarbonyl)-spermidineiminomethyl]-20S-camptothecin [ST2729]”, the IC50 in data set [1] is 34 ± 7 nM.

(Values after patent US7612081B2 (priority 2003, dated 2009).)
